Publication PMC5760734, “Development of an oral once-weekly drug delivery system for HIV antiretroviral therapy” (Nature Communications, 2018)
Like-named read-outs stand apart in the source and are kept apart here.

How the values were obtained:
[1] = Drug stability in simulated gastric fluid (SGF), HPLC; conditions: for stability in SGF: SGF pH ~1.2, 37 °C, 24 h, salt forms
Experimental: To determine drug stability at low pH, the drugs were dissolved in methanol to form a concentrated stock solution. Methanol solutions were then diluted 20-fold in simulated gastric fluid, USP without pepsin (pH ~1.2; henceforth referred to as SGF). Drug solutions were then placed in a shaker incubator (New Brunswick™ Innova® 44, Eppendorf, USA) at 37 °C and 150 r.p.m. At various times, aliquots were withdrawn and stored at −20 °C until analysis. Drug concentrations in the solution were analysed using HPLC and reported as percent of the initial concentrations.
The output signal was monitored and processed using ChemStation® software (Agilent Technologies Inc., USA). Chromatographic separation was carried out on a 50 mm × 4.6 mm EC-C18 Agilent Poroshell 120 analytical column with 2.7 µm spherical particles.
The injection volume was 5 µL, and the UV detection wavelength of 260 nm was selected.
For RPV, the stationary phase was maintained at 40 °C. The mobile phase consisted of methanol: water (pH 3.5 adjusted with 0.1% formic acid) (43:57 v/v) at a flow rate of 0.9 mL/min over a 10 min run time. The injection volume was 20 µL, and the UV detector was set at 290 nm.
For CAB, the column was maintained at 45 °C and the optimized mobile phase consisted of acetonitrile: water (pH 3.5 adjusted with 0.1% formic acid) (30:70 v/v) at flow rate of 0.8 mL/min over an 8 min run time. For analysis, 5 µL of the sample was injected on to the column, and the samples were analysed at a wavelength of 260 nm.
For tenofovir alafenamide, the column was maintained at 22 °C. The mobile phase consisted initially of acetonitrile: water (pH 3.5 adjusted with 0.1% formic acid) (100:0 v/v). […] The flow rate was 0.6 mL/min and the run time was 8 min. The injection volume was 10 µL, and the UV detection wavelength of 260 nm was selected.

[2] = humans receiving the usual oral dose; stated by Reviewer 1, no reference; cited from earlier work
[3] = Plasma pharmacokinetics of immediate release and gastric resident dosage forms in pigs; type: in vivo, Yorkshire pigs; conditions: for Tmax: female, Yorkshire, pig, plasma, oral, post-dose, read-out: time of maximum plasma concentration (converted); for duration of sustained drug concentrations: single dose
Experimental: All animal experiments were approved by the Committee on Animal Care at the Massachusetts Institute of Technology. In vivo pharmacokinetics were evaluated in an unblinded fashion in female Yorkshire pigs (50–95 kg) that were randomly assigned to the immediate release or sustained release groups. Animals were fed daily in the morning and in the evening with a diet consisting of pellets (Laboratory mini-pig growler diet, 5081), with a midday snack consisting of various fruits and vegetables. Specifically, the pellets were 5/32” x ¼” length, and consisted of ground oats, alfalfa meal, wheat middlings, soybean meal, dried beet pulp, salts and other micronutrients.
To determine the oral pharmacokinetics of immediate release dosage forms of DTG and CAB, 50 mg of DTG and 30 mg of CAB were weighed and filled into gelatine capsules. For RPV pharmacokinetics, RPV base was dissolved in poly(ethylene glycol) (molecular weight—400 Da) containing 10-fold molar excess of citric acid. The concentration of RPV base in this solution was 5 mg/mL and 5 mL of the solution was dosed in a gelatine capsule. […] To determine oral pharmacokinetics from gastric retentive dosage forms, the arms of dosage forms (2–3/pig containing 350 mg DTG, 175 mg RPV or 210 mg CAB) were folded into capsule shells immediately prior to dosing. […]. The capsules containing drug or dosage form were delivered into the intestine or stomach respectively. At various time points, blood samples (0.5 mL) were collected from a central line connected to the external jugular vein or from a mammary vein into […] Vacutainer gold top tubes (Becton, Dickinson and Co. USA). Plasma samples were separated from blood by centrifugation (1800g, 10 min at 4 °C) and were stored at −80 °C. Atropine can reduce gastric acid production and gastric motility which may affect the overall drug pharmacokinetics and the gastric retention of the dosage form. […]. Drug concentrations in the plasma were analysed using UPLC-MS/MS. Plasma samples (100 µL) were spiked with 200 µL acetonitrile solution of 250 µg/mL maraviroc (internal standard) to cause precipitation. Samples were vortexed and sonicated for 10–20 min and then centrifuged (21130g, 10 min). Two hundred microliters of solution were pipetted into a 96-well plate containing 200 µL of nanopure water. Finally, 2.5 μL was injected onto the UPLC–ESI–MS system for analysis.
UPLC separation was carried out on a Waters® UPLC aligned with a Waters® Xevo–TQ-SMS mass spectrometer (Waters Ltd., UK). MassLynx® 4.1 software was used for data acquisition and analysis. Liquid chromatography separation was performed on an Acquity® UPLC CSH C18 (50 × 2.1 mm, 1.7 μm particle size) column at 50 °C. The mobile phase consisted of acetonitrile spiked with 0.1% formic acid and 10 mM ammonium formate solution. The mobile phase was flowed at a rate of 0.6 mL/min using a time and solvent gradient composition. The initial composition (100% aqueous) was held for 1 min, following which the composition was changed linearly to 20% organic phase over the next 0.25 min. The composition was then brought to 100% organic over 1.25 min, held for 0.5 min and finally shifted to the initial composition and held constant until the end of the run for column equilibration. The total run time was 4 min and sample injection volume was 2.5 μL. The mass spectrometer was operated in the multiple reaction monitoring (MRM) mode. Sample introduction and ionization was by electrospray ionization (ESI) in the positive ion mode. DTG, RPV and CAB were analysed at mass-to-charge ratios of […] respectively. Stock solutions of DTG, RPV, CAB, and an internal standard maraviroc were prepared in methanol at a concentration of 500 μg/mL. A ten-point calibration curve was prepared ranging from 2.5–5000 ng/mL. Quality control samples were prepared in a similar procedure using an independent stock solution at three concentrations (5, 50 and 500 ng/mL). […]

[4] = Drug stability at high temperature (150 °C, 2 h), HPLC; type: physicochemical; conditions: 150 °C for 2 h
Experimental: To determine the drug stability at high temperatures, the drug was weighed in a 20 mL glass vial, and placed in a convection oven at 150 °C for 2 h. Drug was dissolved in methanol, and the concentration was compared to that of an unheated standard of the same initial concentration via HPLC.

[5] = system: drug-resistant HIV strains; conditions: cited from earlier work
[6] = system: HIV reference strain NL4-3; set-up: method as in ref 46,55–57 (a number printed in a supplementary file, which may have a reference list of its own: not looked up in the article's list); conditions: wild-type virus; cited from earlier work
[7] = set-up: method as in ref 58 (a number printed in a supplementary file, which may have a reference list of its own: not looked up in the article's list); conditions: cited from earlier work
[8] = pig, in vivo, po; cited from earlier work
[9] = immediate release formulation, pigs
[10] = immediate release formulation, pigs, n = 3

Compound: C[C@H]1CO[C@@H]2Cn3cc(C(=O)NCc4ccc(F)cc4F)c(=O)c(O)c3C(=O)N12 [CAB, cabotegravir]
- stability in SGF [1]: stable
- usual Cmax in humans [2]: 2800 ng/mL
- Tmax [3, 9]: 6 h
- average peak plasma concentration, fold lower than immediate release ([3]; gastric resident system vs immediate release, pigs): ~ 2.5 fold
- average (sustained) plasma drug concentrations throughout the week following dosing ([3]; gastric resident system, pigs, n = 3): 200 to 500 ng/mL
- duration of sustained drug concentrations ([3]; gastric resident system): up to 1 week
- day at or after which no drug was detected in plasma [3, 9]: 3 days
- time for which drug was detectable in plasma [3, 9]: up to 2 days
- average maximum plasma concentration [3, 10]: ~1400 ng/mL
- stability at elevated temperature [4]: stable

Compound: Cc1cc(/C=C/C#N)cc(C)c1Nc1ccnc(Nc2ccc(C#N)cc2)n1 [RPV, rilpivirine]
- stability in SGF [1]: stable
- usual Cmax in humans [2]: 200 ng/mL
- Fold change in IC50 (ρ) ([5]; mutation E138K/M184I): 3.20
- Fold change in IC50 (ρ) ([5]; mutation E138K/M230L): 22.60
- Fold change in IC50 (ρ) ([5]; mutation E138K): 2.30
- Fold change in IC50 (ρ) ([5]; mutation K101E/E138K): 3.20
- Fold change in IC50 (ρ) ([5]; mutation K101E/M184I): 5.80
- Fold change in IC50 (ρ) ([5]; mutation K101E): 3.00
- Fold change in IC50 (ρ) ([5]; mutation K101P): 102.13
- Fractional change in slope (σ) ([5]; mutation K101P): -0.21
- Fold change in IC50 (ρ) ([5]; mutation K103N): 1.23
- Fractional change in slope (σ) ([5]; mutation K103N): 0.12
- Fold change in IC50 (ρ) ([5]; mutation M184I): 1.50
- Fold change in IC50 (ρ) ([5]; mutation M230L): 3.40
- Fold change in IC50 (ρ) ([5]; mutation Y181C/Y188L): 30.20
- Fold change in IC50 (ρ) ([5]; mutation Y181C): 1.72
- Fractional change in slope (σ) ([5]; mutation Y181C): -0.48
- Fold change in IC50 (ρ) ([5]; mutation Y181I): 152.91
- Fractional change in slope (σ) ([5]; mutation Y181I): -0.10
- Fold change in IC50 (ρ) ([5]; mutation Y181V): 31.00
- Fold change in IC50 (ρ) ([5]; mutation Y188L): 6.00
- Tmax ([3]; 175 mg, gastric resident dosage form, pigs): 24 h
- maintenance of plasma concentrations ([3]; gastric resident dosage form, pigs, entirety of the study): comparable to the Cmax were maintained for the entirety of the study
- duration of sustained drug concentrations ([3]; gastric resident system): up to 1 week
- time for plasma concentration to drop below the limit of detection [3, 9]: ≤ 2 days
- average maximum plasma concentration [3, 10]: ~25 ng/mL
- IC50 [6]: 105 nM
- m (slope parameter of Hill curve) [6]: 1.83
- Half-life, τ1/2 [7]: 50 h
- Cmax ([7]; maximum plasma concentration at steady state, perfect adherence): 510 nM
- stability at elevated temperature [4]: stable

Compound: CC(C)OC(=O)[C@H](C)N[P@](=O)(CO[C@H](C)Cn1cnc2c(N)ncnc21)Oc1ccccc1 [TAF, tenofovir alafenamide]
- drug remaining stable ([1]; after 10 h of incubation in SGF, 37 °C): 10%

Compound: C[C@]12C=CC(=O)C=C1CC[C@@H]1[C@@H]2[C@@H](O)C[C@@]2(C)[C@H]1CC[C@]2(O)C(=O)CO [prednisolone]
- concentrations achieved in pigs relative to those observed in humans [8]: about one tenth
